CC(=O)N1CCN(c2ccc(OC[C@@H]3CO[C@@](Cn4ccnc4)(c4ccc(Cl)cc4Cl)O3)cc2)CC1 (racemic)
solubility (mole fraction)
Conditions | 293.2 K | 298.2 K | 303.2 K | 308.2 K | 313.2 K
in isopropanol | 0.000774 | 0.00102 | 0.00136 | 0.00204 | 0.00291
in propylene glycol | 0.00148 | 0.00195 | 0.00264 | 0.0039 | 0.00562

— BigSolDB 2.1
